Columns and labels:
Test in all cases: selective drug sensitivity score (sDSS, relative to normal bone marrow) (sDSS (score)); higher = more potent and effective on the cell line relative to normal bone marrow cells
Settings in all cases: 72 h
CCRF-CEM = tested on: CCRF-CEM
RCH-ACV = tested on: RCH-ACV
HPB-ALL = tested on: HPB-ALL
MHH-CALL-4 = tested on: MHH-CALL-4
P30-OHKUBO = tested on: P30-OHKUBO
COG-LL-319h = tested on: COG-LL-319h
MOLT-4 = tested on: MOLT-4
COG-LL-317 = tested on: COG-LL-317
COG-LL-332h = tested on: COG-LL-332h
MHH-CALL-2 = tested on: MHH-CALL-2
NALM-6 = tested on: NALM-6
KARPAS-45 = tested on: KARPAS-45
REH = tested on: REH
MOLT-16 = tested on: MOLT-16
ALL-SIL = tested on: ALL-SIL
COG-LL-355h = tested on: COG-LL-355h
MOLT-14 = tested on: MOLT-14
TANOUE = tested on: TANOUE
PF-382 = tested on: PF-382
MN-60 = tested on: MN-60
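Note: ALL cell lines in 384-well plates, five doses spanning 10,000-fold, each plate scaled between vehicle and 100 µmol/L benzalkonium chloride controls, sDSS an adapted area-under-curve metric.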

Compound	selective drug sensitivity score (CCRF-CEM)	selective drug sensitivity score (RCH-ACV)	selective drug sensitivity score (HPB-ALL)	selective drug sensitivity score (MHH-CALL-4)	selective drug sensitivity score (P30-OHKUBO)	selective drug sensitivity score (COG-LL-319h)	selective drug sensitivity score (MOLT-4)	selective drug sensitivity score (COG-LL-317)	selective drug sensitivity score (COG-LL-332h)	selective drug sensitivity score (MHH-CALL-2)	selective drug sensitivity score (NALM-6)	selective drug sensitivity score (KARPAS-45)	selective drug sensitivity score (REH)	selective drug sensitivity score (MOLT-16)	selective drug sensitivity score (ALL-SIL)	selective drug sensitivity score (COG-LL-355h)	selective drug sensitivity score (MOLT-14)	selective drug sensitivity score (TANOUE)	selective drug sensitivity score (PF-382)	selective drug sensitivity score (MN-60)
C=CC(=O)Nc1cccc(Nc2nc(Nc3ccc(N4CCN(C(C)=O)CC4)cc3OC)ncc2C(F)(F)F)c1 [Rociletinib] (top concentration 10000 nM)	2.44	2.54	1.74	2.14	4.24	0.24	2.04	1.44	1.84	1.94	4.94	3.14	0.84	2.04	3.64	5.84	2.54	-3.16	0.64	-0.76
c1cn2cc(-c3ccc4cn[nH]c4c3)nc(Nc3ccc(N4CCOCC4)cc3)c2n1 [Entospletinib] (top concentration 5000 nM)	-0.64	12.3	-0.64	-0.64	6.96	-0.64	-0.64	-0.64	-0.64	-0.64	1.26	-0.64	-0.64	-0.64	-0.64	1.06	-0.64	-0.64	-0.64	-0.64
O=C(O)CC[C@H]1CC[C@@](c2cc(F)ccc2F)(S(=O)(=O)c2ccc(Cl)cc2)CC1 [MK-0752] (top concentration 1000 nM)	0	0.3	0	0	2.5	0	0	0	0	3.8	0	0	0	0	0	0	0	0	0	0
C=CC(=O)Nc1cc(Nc2nccc(-c3cn(C)c4ccccc34)n2)c(OC)cc1N(C)CCN(C)C [Osimertinib] (top concentration 2500 nM)	-0.52	-1.02	-0.92	-1.12	1.08	-4.12	-3.12	0.78	-0.32	3.18	-1.62	-1.92	0.88	-0.82	-2.52	2.98	0.08	-5.22	-2.12	-3.02
CNC(=O)c1ccc(N2C(=S)N(c3cnc(C#N)c(C(F)(F)F)c3)C(=O)C23CCC3)cc1F [Apalutamide] (top concentration 10000 nM)	0	0	0	0	0	0	0	0	0	0	0	0	0	0	0	0	0	0.1	0	0
COc1cc(C)c(/C=C/C(C)=C/C=C/C(C)=C/C(=O)O)c(C)c1C [Acitretin] (top concentration 10000 nM)	-1	-1.6	-0.1	-1.6	-1.6	-1.6	-1.2	-0.5	0	-0.7	-1.5	0.2	-1.6	-0.4	-1.6	2.3	-1.4	-1.6	-1.4	-1.6
O=C(O)c1ccc(CN2CCC(CN[C@@H]3C[C@H]3c3ccccc3)CC2)cc1 (top concentration 100000 nM)	-0.02	-0.62	-0.62	0.58	-0.62	-0.62	-0.62	6.48	0.08	-0.02	-0.62	-0.32	-0.22	0.28	-0.62	0.58	-0.62	-0.62	-0.42	-0.62
Cc1nc(=O)c2cc(CN(C)c3ccc(C(=O)N[C@@H](CCC(=O)O)C(=O)O)s3)ccc2[nH]1 [Raltitrexed] (top concentration 1000 nM)	23.3	29.2	13.4	16.1	25.3	25.7	17.3	19.5	18.3	19.6	23	9.52	24.3	25.3	17.3	4.82	17.7	-0.58	13.1	8.02
CNC(=O)c1ccc(C)c(-n2c(C)cc(OCc3ccc(F)cc3F)c(Br)c2=O)c1 (top concentration 1000 nM)	0	7.4	4.6	5	4.5	0	0	0	0	4.9	0.1	0	4	0	0	0	0	0	0	0
CCN1CCN(c2ccc(Nc3cc(N(C)C(=O)Nc4c(Cl)c(OC)cc(OC)c4Cl)ncn3)cc2)CC1 [Infigratinib] (top concentration 1000 nM)	0	0	0	0	0	0	0	0	0	0	0	0	0	0	0	0	0	0	0	0
C[C@]1(O)C[C@@H](c2nc(-c3ccc4ccc(-c5ccccc5)nc4c3)c3c(N)nccn32)C1 [Linsitinib] (top concentration 10000 nM)	-3.18	0.72	2.22	0.22	-0.68	-1.78	-2.58	-3.18	-2.78	2.32	-3.18	-3.18	-3.18	-3.18	2.22	3.12	-3.18	-3.18	-2.88	-3.18
C=CC(=O)Nc1cccc(Oc2nc(Nc3ccc(N4CCN(C)CC4)cc3)nc3ccsc23)c1 [Olmutinib] (top concentration 1000 nM)	-0.02	1.58	-0.02	-0.02	1.38	-0.02	-0.02	0.48	-0.02	6.88	-0.02	0.28	2.28	-0.02	-0.02	1.78	-0.02	-0.02	-0.02	-0.02
Cc1ccc(-n2nc(C(C)(C)C)cc2NC(=O)Nc2ccc(OCCN3CCOCC3)c3ccccc23)cc1 [Doramapimod] (top concentration 10000 nM)	-0.24	4.56	2.76	-0.24	4.26	1.06	2.46	10.9	4.36	4.56	-0.24	-0.24	5.36	4.16	-0.24	1.26	-0.24	1.16	0.46	0.66
CC[C@@H]1[C@H](F)C(=O)N[C@@H]1COc1nccc2cc(C(N)=O)c(OC)cc12 (top concentration 10000 nM)	1.58	2.58	-1.32	-0.92	2.38	2.88	2.48	1.28	-0.42	-0.22	4.48	2.58	-1.32	0.98	-1.32	1.28	1.38	-0.22	-0.42	5.88
CC(O)(CS(=O)(=O)c1ccc(F)cc1)C(=O)Nc1ccc(C#N)c(C(F)(F)F)c1 (stereo not given) [Bicalutamide] (top concentration 10000 nM)	-0.38	-1.68	-1.68	-1.68	-1.68	3.72	2.32	0.52	0.72	-1.68	2.02	-0.88	-1.68	6.92	-1.68	2.62	2.52	-1.28	-1.38	1.42
CC1(C)C(C(=O)Nc2ccc(S(=O)(=O)c3ccc(NC(=O)C4C(C)(C)C4(C)C)cc3)cc2)C1(C)C [BRD7116] (top concentration 10000 nM)	1.16	-0.14	3.26	-0.24	4.46	1.26	0.66	-0.24	-0.24	0.16	1.96	-0.04	2.86	1.26	-0.24	-0.24	2.16	-0.24	0.36	-0.04
Cc1nc2cccc(N)c2c(=O)n1C1CCC(=O)NC1=O (stereo not given) [Avadomide (CC122)] (top concentration 10000 nM)	0.9	10.5	0	3.9	5.9	0	0	0	0	0	0	0	3.6	0	0	2.6	0	0	0	2.3
Nc1cccc2c1C(=O)N(C1CCC(=O)NC1=O)C2=O (stereo not given) [Pomalidomide] (top concentration 10000 nM)	-0.26	9.54	1.44	7.54	0.54	-0.26	-0.26	-0.26	-0.26	-0.16	-0.26	-0.26	2.74	-0.26	-0.26	5.24	-0.26	-0.26	-0.26	-0.26

Reference: the supplement of paper PMC8967900
